This is an account of results in patent US8236346B2, “Method for reducing amyloid deposition, amyloid neurotoxicity, and microgliosis with (-)-nilvadipine enantiomer” (Alzheimer's Institute of America, Inc, priority 2007, dated 2012).

Experiment [1] concerns N9 murine microglial cells. Put plainly: LPS-induced microglial activation, TNF-α production by ELISA. The experiment is classed as cell-based. As to the method: N9 murine microglial cells are well characterized scavenger murine microglial clones derived from embryonic mouse brain. The extent of microglial activation was determined by TNF-α production (pg/ml) measured by ELISA. […] Microglial cells in the presence of 1 μg/ml LPS produced about 820 pg/ml TNF-α, an […] from the control cells and nilvadipine-administered cells.
Background: An ELISA detects its analyte on a solid surface through an enzyme-linked reagent.

In a further experiment the test system is CD45+ microglia. The experiment can be described thus: Chronic administration of nilvadipine on microglial activation, CD45 immunostaining. The experiment is classed as in vivo, TgAPPsw mice. As to the method: Briefly, immunohistochemistry for CD45, a specific marker of microglia, was conducted on the cryostat brain sections. CD45-positive microglial cells were immunolocalized by incubation with a mouse monoclonal antibody against CD45 (Chemicon International) overnight at 4° C., followed by application of a biotinylated rabbit anti-mouse secondary antibody for 30 minutes. Detection of CD45 was completed with diaminobenzidine chromogen substrate, which produces a brown cell surface stain on CD45-positive microglial cells.

Experiment [2] has as its system human glioblastoma cells transfected with APPsw. The experiment can be described thus: APP processing, Aβ1-40 production by ELISA. The experiment is classed as cell-based.
Experiment [3] deals with Aβ deposition (amyloid burden). Put plainly: Chronic administration of nilvadipine on Aβ deposition (amyloid burden), 4G8 immunostaining. It is filed as in vivo, TgAPPsw mice. The method, then: The 4G8 immunostaining technique was chosen for determining the Aβ burden because of its robust signal and optimal results for quantitative analysis of Aβ deposition. Briefly, paraffin sections were subjected to immunohistochemistry as described previously (Nakagawa, Y et al., Exp. Neurol., 163:244-252, 2000). Sections were deparaffinized in xylene, hydrated in a series of ethanol and deionized water, and subjected to an antigen retrieval step by immersing sections in 88% formic acid for 60 min before immunohistochemistry for Aβ. Sections were washed in water, and endogenous peroxidases were quenched using a freshly prepared mixture of methanol (150 ml) plus hydrogen peroxide (33%, 30 ml). The avidin-biotin complex method was used according to the instructions of the vendor (Vector Laboratories, Burlingame, Calif.). Amyloid burden was assessed by determining the percentage of the brain region that stained positive for Aβ. Negative controls included the application of the same immunohistochemistry protocol to sections, except preimmune serum was applied instead of primary antibody.

Experiment [4] has as its system human neuronal progenitor cells (HNPC). The experiment can be described thus: Aβ neurotoxicity, LDH release. The experiment is classed as cell-based. As to conditions: 100 nM nilvadipine with 30 μM AgAβ, three days. The method, then:
Cyclic AMP (1 mM) (Sigma) was added to the culture medium and the HNPC cells were incubated at 37° C. for 48 hours or more under serum free conditions. This medium allowed differentiation of the progenitors into cells of neuronal lineage, as was confirmed by the staining of most of the cells with antibodies against the microtubule-associated protein, MAP-2. Neurotoxicity was assessed by measuring the amount of lactic dehydrogenase (LDH; an intracellular enzyme found in all cells) released from the cells.
(Release of lactate dehydrogenase indicates damage to the cell membrane.)

The target of the next experiment is L-type calcium channels (Rattus norvegicus, UniProt P22002). The experiment can be described thus: FPL64176 induced vasoconstriction in rat aortae. The settings on record: 100 nM, 2 min prior to 1 μM FPL64176.
The subject of experiment [5] is 7W WT APP751 Chinese hamster ovary cells. The experiment can be described thus: Aβ1-40 and Aβ1-42 production by ELISA. It is filed as cell-based. The settings on record: 24 hours treatment. The method, then:
Production of Aβ1-40 and Aβ1-42 in the culture medium was measured by using a commercially available human Aβ1-40 ELISA (Biosource, CA) and commercially available human Aβ1-42 ELISA (Biosource, CA), respectively.

Another experiment relates to Aβ deposits. As to conditions: Lim et al., J. Neurosci. 2000; cited from earlier work.

Chain of L-type calcium channels (P22002 whole entry): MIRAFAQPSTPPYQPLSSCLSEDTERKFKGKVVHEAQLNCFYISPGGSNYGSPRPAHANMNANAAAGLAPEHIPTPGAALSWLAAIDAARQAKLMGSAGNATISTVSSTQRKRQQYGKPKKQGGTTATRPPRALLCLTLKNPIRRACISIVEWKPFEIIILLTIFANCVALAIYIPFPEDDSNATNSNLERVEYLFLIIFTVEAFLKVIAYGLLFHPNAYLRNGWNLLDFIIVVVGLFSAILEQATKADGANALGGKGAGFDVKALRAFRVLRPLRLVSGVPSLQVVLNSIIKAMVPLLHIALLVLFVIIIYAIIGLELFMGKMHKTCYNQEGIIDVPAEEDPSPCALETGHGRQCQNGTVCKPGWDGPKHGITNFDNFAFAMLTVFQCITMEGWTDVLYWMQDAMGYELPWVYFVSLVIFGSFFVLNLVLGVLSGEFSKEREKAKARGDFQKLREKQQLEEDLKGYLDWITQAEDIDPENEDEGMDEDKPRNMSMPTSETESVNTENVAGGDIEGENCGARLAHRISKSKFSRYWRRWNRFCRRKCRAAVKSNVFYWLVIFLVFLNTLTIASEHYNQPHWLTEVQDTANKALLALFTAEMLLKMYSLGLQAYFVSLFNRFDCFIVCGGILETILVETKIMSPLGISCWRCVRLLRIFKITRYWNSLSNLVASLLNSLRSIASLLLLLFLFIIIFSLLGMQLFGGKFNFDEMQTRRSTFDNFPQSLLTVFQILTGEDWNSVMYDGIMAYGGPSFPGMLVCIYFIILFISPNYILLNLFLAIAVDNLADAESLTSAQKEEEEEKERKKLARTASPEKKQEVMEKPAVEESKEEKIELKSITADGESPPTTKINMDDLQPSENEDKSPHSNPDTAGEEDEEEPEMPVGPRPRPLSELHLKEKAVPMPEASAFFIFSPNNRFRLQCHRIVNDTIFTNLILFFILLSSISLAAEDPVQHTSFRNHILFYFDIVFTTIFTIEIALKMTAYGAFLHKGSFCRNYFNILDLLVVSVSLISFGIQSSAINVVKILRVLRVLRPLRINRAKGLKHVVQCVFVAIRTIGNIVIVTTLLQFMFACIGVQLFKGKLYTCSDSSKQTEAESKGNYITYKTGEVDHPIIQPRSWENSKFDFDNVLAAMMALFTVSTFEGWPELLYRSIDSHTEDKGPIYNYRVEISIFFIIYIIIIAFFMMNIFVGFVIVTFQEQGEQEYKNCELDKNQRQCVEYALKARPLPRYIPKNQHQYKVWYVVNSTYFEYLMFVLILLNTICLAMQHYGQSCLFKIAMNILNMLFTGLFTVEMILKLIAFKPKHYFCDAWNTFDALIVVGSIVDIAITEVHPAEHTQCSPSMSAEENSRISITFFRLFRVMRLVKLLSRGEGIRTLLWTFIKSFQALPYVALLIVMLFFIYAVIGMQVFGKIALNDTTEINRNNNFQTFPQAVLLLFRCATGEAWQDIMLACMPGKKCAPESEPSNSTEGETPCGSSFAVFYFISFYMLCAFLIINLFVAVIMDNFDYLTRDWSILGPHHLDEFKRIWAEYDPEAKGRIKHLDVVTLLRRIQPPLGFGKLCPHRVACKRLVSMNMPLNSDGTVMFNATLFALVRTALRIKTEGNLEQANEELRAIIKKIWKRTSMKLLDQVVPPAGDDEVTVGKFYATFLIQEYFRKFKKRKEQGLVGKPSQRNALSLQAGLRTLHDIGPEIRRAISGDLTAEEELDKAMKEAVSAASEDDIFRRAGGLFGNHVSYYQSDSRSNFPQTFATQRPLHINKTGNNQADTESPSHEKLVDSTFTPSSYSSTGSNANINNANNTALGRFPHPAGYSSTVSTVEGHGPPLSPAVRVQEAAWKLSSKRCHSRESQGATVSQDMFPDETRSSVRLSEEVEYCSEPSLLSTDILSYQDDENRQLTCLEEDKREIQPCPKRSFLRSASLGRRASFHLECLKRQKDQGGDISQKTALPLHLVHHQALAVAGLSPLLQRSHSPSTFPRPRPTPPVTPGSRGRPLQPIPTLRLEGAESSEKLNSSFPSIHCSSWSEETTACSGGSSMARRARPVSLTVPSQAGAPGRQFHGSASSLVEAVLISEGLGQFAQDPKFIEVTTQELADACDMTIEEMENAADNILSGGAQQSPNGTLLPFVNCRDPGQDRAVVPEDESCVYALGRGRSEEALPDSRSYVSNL
Chain of L-type calcium channels (P54290 25-944 partner limits assumed): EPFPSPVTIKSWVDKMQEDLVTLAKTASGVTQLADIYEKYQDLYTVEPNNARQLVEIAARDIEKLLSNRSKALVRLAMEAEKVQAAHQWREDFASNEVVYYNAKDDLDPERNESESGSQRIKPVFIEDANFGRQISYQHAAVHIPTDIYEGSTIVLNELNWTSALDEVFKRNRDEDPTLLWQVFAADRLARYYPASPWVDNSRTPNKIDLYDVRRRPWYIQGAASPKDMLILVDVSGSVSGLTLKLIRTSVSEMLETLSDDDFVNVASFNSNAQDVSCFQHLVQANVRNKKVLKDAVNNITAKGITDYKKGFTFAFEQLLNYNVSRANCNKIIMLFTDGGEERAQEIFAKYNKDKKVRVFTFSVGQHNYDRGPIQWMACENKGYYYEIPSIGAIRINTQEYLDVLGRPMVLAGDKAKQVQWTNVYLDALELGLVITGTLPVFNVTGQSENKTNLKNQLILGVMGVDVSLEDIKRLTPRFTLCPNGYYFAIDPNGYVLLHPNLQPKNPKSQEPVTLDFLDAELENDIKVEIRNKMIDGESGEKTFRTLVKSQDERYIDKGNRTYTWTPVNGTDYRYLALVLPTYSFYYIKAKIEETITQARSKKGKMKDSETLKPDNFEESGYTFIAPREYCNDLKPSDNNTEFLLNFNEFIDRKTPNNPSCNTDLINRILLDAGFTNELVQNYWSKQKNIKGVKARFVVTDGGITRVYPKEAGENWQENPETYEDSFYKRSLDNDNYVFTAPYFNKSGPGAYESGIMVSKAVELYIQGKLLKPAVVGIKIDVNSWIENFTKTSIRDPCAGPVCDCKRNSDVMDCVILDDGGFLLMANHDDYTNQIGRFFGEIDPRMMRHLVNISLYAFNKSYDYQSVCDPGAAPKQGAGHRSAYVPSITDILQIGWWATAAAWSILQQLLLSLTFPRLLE
Chain of L-type calcium channels (P54290 945-1091 partner limits assumed): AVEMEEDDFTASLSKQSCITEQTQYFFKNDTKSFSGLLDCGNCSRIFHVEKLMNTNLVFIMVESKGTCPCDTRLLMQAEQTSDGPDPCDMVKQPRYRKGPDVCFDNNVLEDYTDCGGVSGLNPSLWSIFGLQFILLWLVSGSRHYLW

Turning to `COC(=O)C1=C(C#N)NC(C)=C(C(=O)OC(C)C)C1c1cccc([N+](=O)[O-])c1` (racemic) [nilvadipine, isopropyl-3-methyl-2-cyano-1,4-dihydro-6-methyl-4-(m-nitrophenyl)-3,5-pyridine-dicarboxylate], the TNF-α production entry is given as “about 40 pg/ml” in experiment [1] (50 nM nilvadipine, no LPS); “about 670 pg/ml” in experiment [1] (1 μg/ml LPS plus 50 nM nilvadipine, 24 hours); “about 610 pg/ml” in experiment [1] (1 μg/ml LPS plus 500 nM nilvadipine, 24 hours). Further, the “reduction of microglial activation compared to controls” value in the experiment on CD45+ microglia (hippocampus) is “about 33%”; in the experiment with CD45+ microglia (motor cortex) it was “about 27%”; with CD45+ microglia (parietal cortex), “about 43%”. Moreover, the “reduction of Aβ1-40 production” value is on record as “about 9%” in experiment [2] (50 nM, 24 hours); “about 18%” in experiment [2] (50 nM, 48 hours); “about 15%” in experiment [2] (250 nM, 24 hours); “about 5%” in experiment [2] (250 nM, 48 hours). Further, the “reduction of Aβ burden compared to controls” value in experiment [3] (CA1 region of the hippocampus) is given as “about 52%”; in experiment [3] (CA2-CA3 region of the hippocampus) it was “about 50%”; in experiment [3] (motor cortex), “about 58%”; in experiment [3] (parietal cortex) it was “about 65%”; in experiment [3] (pyriform cortex) it was “about 58%”; in experiment [3] (visual cortex), “about 62%”. In experiment [4], the “decrease of LDH release” value is “about 44%”.
As for `COC(=O)C1=C(C#N)NC(C)=C(C(=O)OC(C)C)[C@H]1c1cccc([N+](=O)[O-])c1` [(+)-nilvadipine], the “effect on FPL64176 induced vasoconstriction” value on L-type calcium channels was “completely antagonizes”. The “effect on Aβ1-40 production” value in experiment [5] (dose response) is “dose dependently inhibit”. Further, the “effect on Aβ1-42 production” value in experiment [5] (low dose) is recorded as “slightly stimulate”.
As for `CC(C)Cc1ccc(C(C)C(=O)O)cc1` (stereo not drawn) [ibuprofen], in the experiment on Aβ deposits, the “effect on Aβ deposits, astrocytosis and dystrophic neuritis” value was “reduction in Aβ deposits, astrocytosis, and dystrophic neuritis”.
